# Source: US10954549B2, “Detection and classification of an anticoagulant using a clotting assay” (Haemonetics Corporation, priority 2014, dated 2021)
# Tests used:
# citrated whole blood [1] = assay: TEG kaolin with ecarin test of spiked blood; format: biochemical, human; conditions: for R value with ecarin versus reference range: Example 2, three dosage levels, kaolin reference range about 5 to about 10 minutes; for R time in the presence versus absence of ecarin: FIGS. 8A-8C; for MA values with ecarin relative to samples run without ecarin: kaolin test; for R, K and TMRTG values on addition of ecarin to the kaolin test / α and MRTG values on addition of ecarin to the kaolin test: treated and control groups
# Excerpt: (§1) The TEG clotting assay was used to determine if low, normal, and high doses of dabigatran, rivaroxaban, and apixaban could be detected in blood spiked with these compounds. Three oral anticoagulants (OAC), namely dabigatran, rivaroxaban, and apixaban, were spiked into blood obtained from 14 healthy volunteer human donors. For each OAC tested, citrated blood from three donors was spiked with three different concentrations of the active drug (i.e., the compound). The spiked blood samples and control samples spiked with diluent were tested with the TEG® 5000 Thrombelastograph® Hemostasis Analyzer (Haemonetics Corporation, Braintree, Mass., USA) using the Kaolin and RapidTEG® reagents (Haemonetics). Each sample was run in triplicate. All samples were tested with and without ecarin (purchased from Enzyme Research Laboratories, South Bend, IN). This study was IRB approved and all donors were over 18 and signed informed consent forms.
# For the kaolin test, 1 mL of citrated blood sample was mixed with kaolin and 340 microliters (μL) of this blood was added to a TEG cup containing 20 μL of 0.2M CaCl2 for recalcification. The kaolin with ecarin test was performed in a similar fashion, using 20 μL of an ecarin/CaCl2 solution (0.16 M CaCl2; 19 EU/mL ecarin).
# Ecarin is derived from the venom of the saw-scaled viper, Echis carinatus. Ecarin activates prothrombin (the precursor of thrombin—see FIG. 5). This activation of prothrombin by ecarin produces meizothrombin, a prothrombin-thrombin intermediate which has a low level of procoagulant enzymatic activity.
# Healthy human volunteers (who are not being administered any anticoagulant), donated blood. Following donation, the blood collected from the donors (which was added to citrate to prevent clotting) was divided into portions, and portions of the blood were spiked with either nothing, dabigatran, or rivaroxaban. The portions were then assayed using thromboelastography, including assays performed in the presence of ecarin.
# citrated whole blood [2] = assay: rTEG with ecarin test of spiked blood; format: biochemical, human
# Excerpt: as §1
# 340 μL of the citrated blood sample was added to the cup with these two reagents, and the contents of the cup were mixed 3 times by drawing the contents of the cup up into the pipette and redispensing it into the cup. The test was started immediately after mixing and allowed to run until the MA parameter had defined. The rTEG with ecarin test was performed as the rTEG test above, using 20 μL of an ecarin/CaCl2 solution (0.16M CaCl2; 19EU/mL ecarin).
# [3] = tested on: blood from healthy volunteers; assay: Thromboelastography R time of spiked blood in the presence of the FXa reagent; format: biochemical, human; conditions: in vitro spiking, increasing concentrations
# Experimental: Blood from healthy volunteers known not to be taking any oral anticoagulant and without any other significant health issues are analyzed using the FXa or the Ecarin reagent in a TEG® hemostasis analyzer. The FXa reagent (i.e., the Factor Xa reagent) is used to detect the presence (or absence) of an anticoagulant in the blood component being tested. In absence of any oral anticoagulant, the FXa reagent will accelerate the clotting process and result in a very short R-time. In presence of direct thrombin inhibitors and/or anti-Factor Xa anticoagulant(s), the process is slowed down and will cause elongation of the R-time. This difference in R-time is utilized to detect the presence of the oral anticoagulant. The R-time generated from multiple donors was used to construct a reference range. Blood was spiked with either direct thrombin inhibitors or anti-Xa(s) at different concentrations and analyzed using the FXa reagent or the Ecarin reagent. The drug concentrations chosen represent the published therapeutic ranges for these two classes of drugs. This assay was repeated in multiple donors to account for possible donor variations.
# [4] = tested on: blood from a single human volunteer; assay: Detection time (R time with Factor Xa) in volunteer blood before and after oral anticoagulant; format: in vivo; conditions: 2 hours 30 minutes after 20 mg oral
# Experimental: (§2) Blood from a single human volunteer was analyzed using thromboelastography with Factor Xa and ecarin before and after the volunteer was orally administered an anticoagulant.
# (§3) For these studies, the normal ranges for the particular reagent (i.e., Factor Xa or ecarin) were determined using multiple donors known not to be taking any anticoagulant.
# (§4) The human volunteer was known not to be taking (i.e., was not being administered) an anticoagulant. In this example, blood was taken from the volunteer before the volunteer was administered any anticoagulant. This is the “before” blood component sample. The volunteer was orally administered 20 mg rivaroxaban, an anti-Factor Xa anticoagulant. Two hours and thirty minutes after oral administration of the rivaroxaban, blood was drawn again from the volunteer. This is the “after” blood component sample.
# (§5) The “before” and “after” samples were analyzed using thromboelastography in the presence of Factor Xa or in the presence of ecarin. When the R time is determined in the presence of Factor Xa, that time is called the detection time. When the R time is determined in the presence of ecarin, that time is called the classification time.
# [5] = tested on: blood from a single human volunteer; assay: Classification time (R time with ecarin) in volunteer blood before and after oral anticoagulant; format: in vivo; conditions: 2 hours 30 minutes after 20 mg oral
# Experimental: as §2, §3, §4, §5
# [6] = cited from earlier work
# porcine plasma = assay: TEG 6S DTI channel R-time, porcine experimental trauma model; format: in vivo; conditions: pre and post trauma; baseline 3.4±0.6 min
# Experimental: The TEG®6S system (Haemonetics Corp., Braintree, Mass.) is based on viscoelasticity measurements using resonance frequency and disposable multi-channel microfluidic cartridges. Blood and plasma from healthy volunteers were spiked with dabigatran in the therapeutic range (in increasing concentrations) and tested with an OAC cartridge with an ecarin based, direct thrombin inhibitor (DTI) channel. This channel was also evaluated with porcine plasma from an experimental trauma model (n=6) where dabigatran levels were measured with dilute TT (Hemoclot®). TEG 6s R-time (reaction time) was correlated to the drug levels.
Compound,R value with ecarin versus reference range (citrated whole blood [1]),R time in the presence versus absence of ecarin (citrated whole blood [1]),MA values with ecarin relative to samples run without ecarin (citrated whole blood [1]),"R, K and TMRTG values on addition of ecarin to the kaolin test (citrated whole blood [1])",α and MRTG values on addition of ecarin to the kaolin test (citrated whole blood [1]),TEG-ACT times on addition of ecarin to the RapidTEG test (citrated whole blood [2]),TMRTG times on addition of ecarin to the RapidTEG test (citrated whole blood [2]),"R-time compared to the reference range, FXa reagent [3]",further results
"O=C(NC[C@H]1CN(c2ccc(N3CCOCC3=O)cc2)C(=O)O1)c1ccc(Cl)s1 [rivaroxaban, Rivaroxaban]",dramatically shortened and all three dosage levels fall outside of the control reference range,equivalent and significant shortening of R time,did not change,significant decrease,significant increase,significantly decreases,significantly decreases,dose dependent elongation of the R-time,"RapidTEG α angle when ecarin was added (citrated whole blood [2]; any of the studied concentrations): did not change; RapidTEG K values when ecarin was added (citrated whole blood [2]; middle concentration (89 ng/mL)): significantly decreased; ""after"" detection time (R time, FXa reagent) [4]: approximately 4.4 minutes; ""after"" detection time relative to the reference range R time of 1.5 minutes [4]: 2.93 times; R of ""after"" blood versus Ecarin reference range (approximately 4.1 minutes upper boundary) [5]: within the Ecarin reference range; half-lives compared ([6]; in vivo): shorter half-lives than dabigatran; Cmax ([6]; oral dose of 10 mg): 141 ng/mL"
dabigatran,shortened and approaches the normal reference range,concentration dependent decrease in R time,did not change,significant decrease,significant increase,significantly decreases,significantly decreases,dose dependent elongation of the R-time,"R, kaolin test with ecarin (citrated whole blood [1]; 500, 200, 50 ng/mL): only a dose related decrease of the R; MA value on addition of ecarin to the RapidTEG test (citrated whole blood [2]; 200 ng/mL, still within normal range): significantly decreased; RapidTEG α angle when ecarin was added (citrated whole blood [2]; lowest concentrations (200 ng/mL, 50 ng/mL)): decrease of the angle value; RapidTEG K values when ecarin was added (citrated whole blood [2]; middle concentration (200 ng/mL)): increased; R-time following administration (porcine plasma): ≥ 21 ± 5.9 min; maximum plasma concentration ([6]; 150 mg oral dose): 110 ng/mL; half-life ([6]; lengthened in patients with renal dysfunction): 12 to 17 h"
